Counter-ions that a name gives are not always drawn. Like-named read-outs stand apart in the source and are kept apart here.
Assays:
TBK1 = TBK1 (Homo sapiens (Human), UniProt Q9UHD2); experiment: TBK1 TR-FRET enzymatic assay;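 note: phosphorylation of a biotinylated Ser/Thr peptide by purified full-length recombinant TBK1, read by TR-FRET after 240 min at 25 °C, IC50 is the geometric mean of at least four runs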
IKKε = IKKε (Homo sapiens (Human), UniProt Q14164); experiment: IKKε TR-FRET enzymatic assay; format: biochemical; conditions: read-out: IKKe IC50
IKKε, sequence (Q14164 whole entry): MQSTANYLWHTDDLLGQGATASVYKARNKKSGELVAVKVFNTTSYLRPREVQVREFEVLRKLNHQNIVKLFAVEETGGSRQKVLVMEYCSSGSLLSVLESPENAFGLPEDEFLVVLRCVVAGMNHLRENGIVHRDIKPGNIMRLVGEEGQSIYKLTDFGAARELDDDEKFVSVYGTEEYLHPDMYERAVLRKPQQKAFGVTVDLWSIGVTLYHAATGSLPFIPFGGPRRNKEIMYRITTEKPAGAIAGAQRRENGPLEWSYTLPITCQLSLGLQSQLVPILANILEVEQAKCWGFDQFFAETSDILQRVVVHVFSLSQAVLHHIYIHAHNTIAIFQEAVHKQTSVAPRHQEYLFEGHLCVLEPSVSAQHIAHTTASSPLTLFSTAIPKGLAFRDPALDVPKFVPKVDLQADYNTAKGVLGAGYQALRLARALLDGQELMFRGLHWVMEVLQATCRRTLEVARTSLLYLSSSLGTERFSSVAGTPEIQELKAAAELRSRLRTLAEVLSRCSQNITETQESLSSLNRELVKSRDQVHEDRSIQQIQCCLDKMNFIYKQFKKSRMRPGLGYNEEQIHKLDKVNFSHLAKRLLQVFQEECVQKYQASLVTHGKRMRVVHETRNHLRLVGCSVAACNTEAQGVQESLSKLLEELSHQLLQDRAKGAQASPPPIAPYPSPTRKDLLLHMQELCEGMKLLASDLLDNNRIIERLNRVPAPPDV

hJAK2 = hJAK2 (Homo sapiens (Human), UniProt O60674); experiment: hJAK2 LANCE TR-FRET enzymatic assay; format: biochemical; conditions: read-out: JAK2 IC50
hJAK2, sequence (O60674 whole entry): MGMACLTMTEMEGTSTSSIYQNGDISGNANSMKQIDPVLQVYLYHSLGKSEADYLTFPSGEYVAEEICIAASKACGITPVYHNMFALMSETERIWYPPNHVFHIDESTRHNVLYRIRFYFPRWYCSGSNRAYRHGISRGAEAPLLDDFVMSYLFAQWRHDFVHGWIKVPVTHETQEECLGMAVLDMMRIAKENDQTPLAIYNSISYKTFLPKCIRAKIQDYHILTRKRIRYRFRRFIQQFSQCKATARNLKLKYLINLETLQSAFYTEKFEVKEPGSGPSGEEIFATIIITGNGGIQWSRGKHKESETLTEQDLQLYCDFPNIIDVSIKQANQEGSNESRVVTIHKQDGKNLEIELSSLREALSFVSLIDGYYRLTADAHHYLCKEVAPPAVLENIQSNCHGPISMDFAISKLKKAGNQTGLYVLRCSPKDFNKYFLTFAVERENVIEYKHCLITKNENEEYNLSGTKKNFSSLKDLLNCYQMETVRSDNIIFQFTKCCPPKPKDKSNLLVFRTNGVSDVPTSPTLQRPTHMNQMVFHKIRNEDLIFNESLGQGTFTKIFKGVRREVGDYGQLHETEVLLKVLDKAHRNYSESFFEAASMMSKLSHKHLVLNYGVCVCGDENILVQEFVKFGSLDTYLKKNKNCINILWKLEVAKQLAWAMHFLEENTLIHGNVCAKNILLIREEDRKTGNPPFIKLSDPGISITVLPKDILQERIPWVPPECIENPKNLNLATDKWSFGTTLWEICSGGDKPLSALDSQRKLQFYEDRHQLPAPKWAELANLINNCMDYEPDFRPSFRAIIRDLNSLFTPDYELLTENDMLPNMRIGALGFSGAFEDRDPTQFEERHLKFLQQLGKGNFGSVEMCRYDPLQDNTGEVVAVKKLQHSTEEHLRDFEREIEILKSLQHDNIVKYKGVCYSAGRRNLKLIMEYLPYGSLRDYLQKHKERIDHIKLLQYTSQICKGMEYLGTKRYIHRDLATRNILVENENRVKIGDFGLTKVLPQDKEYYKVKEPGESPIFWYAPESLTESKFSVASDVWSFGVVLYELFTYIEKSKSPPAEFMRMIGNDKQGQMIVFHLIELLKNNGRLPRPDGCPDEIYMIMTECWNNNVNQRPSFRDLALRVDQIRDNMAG

[1] = TR-FRET, 2×Km ATP, geometric mean of minimum four determinations

TBK1, sequence (Q9UHD2 whole entry): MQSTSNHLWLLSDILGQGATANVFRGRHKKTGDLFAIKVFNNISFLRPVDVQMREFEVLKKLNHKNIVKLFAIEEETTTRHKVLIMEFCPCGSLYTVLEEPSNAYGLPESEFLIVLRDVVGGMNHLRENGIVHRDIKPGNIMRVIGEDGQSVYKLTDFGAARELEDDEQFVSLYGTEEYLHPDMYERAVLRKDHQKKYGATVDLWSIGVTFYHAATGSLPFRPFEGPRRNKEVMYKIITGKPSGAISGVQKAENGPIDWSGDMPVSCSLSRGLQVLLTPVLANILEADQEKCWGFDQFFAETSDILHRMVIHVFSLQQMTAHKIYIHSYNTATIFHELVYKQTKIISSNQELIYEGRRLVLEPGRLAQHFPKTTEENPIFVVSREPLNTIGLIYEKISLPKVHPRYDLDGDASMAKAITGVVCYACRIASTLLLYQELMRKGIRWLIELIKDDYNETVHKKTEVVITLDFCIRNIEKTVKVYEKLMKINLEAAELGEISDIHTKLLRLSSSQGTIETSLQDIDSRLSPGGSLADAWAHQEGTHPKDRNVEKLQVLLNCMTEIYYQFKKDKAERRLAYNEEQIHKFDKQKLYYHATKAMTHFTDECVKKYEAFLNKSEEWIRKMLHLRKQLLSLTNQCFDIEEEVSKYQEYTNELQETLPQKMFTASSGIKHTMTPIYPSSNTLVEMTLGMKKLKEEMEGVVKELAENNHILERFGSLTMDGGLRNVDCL

Compound	IC50 (TBK1)	IC50 (IKKε; [1])	IC50 (hJAK2)	IC50 (IKKε)
Cc1cc(Nc2ncnc(-c3ccc(O[C@H]4CCN(C(=O)[C@@H](O)CO)C[C@H]4F)c(C#N)c3)n2)cnc1N1CCN(C2COC2)CC1 [Example 513, 2-(((3R,4S)-1-((S)-2,3-dihydroxypropanoyl)-3-fluoropiperidin-4-yl)oxy)-5-(4-((5-methyl-6-(4-(oxetan-3-yl)piperazin-1-yl)pyridin-3-yl)amino)-1,3,5-triazin-2-yl)benzonitrile]	2 nM	1 nM	517 nM	
N#Cc1cc(-c2ncnc(Nc3ccc(N4CCN(C5COC5)CC4)cc3)n2)ccc1OCCN1CCNC(=O)C1 [Example 608, 5-(4-((4-(4-(oxetan-3-yl)piperazin-1-yl)phenyl)amino)-1,3,5-triazin-2-yl)-2-(2-(3-oxopiperazin-1-yl)ethoxy)benzonitrile]	662 nM		≥ 1000 nM	≥ 1000 nM
C[C@H](O)C(=O)N1CC[C@H](Oc2ccc(-c3ncnc(Nc4ccnc(C(C)(C)O)c4)n3)cc2C#N)[C@H](F)C1 [Example 386, 2-(((3R,4S)-3-fluoro-1-((S)-2-hydroxypropanoyl)piperidin-4-yl)oxy)-5-(4-((2-(2-hydroxypropan-2-yl)pyridin-4-yl)amino)-1,3,5-triazin-2-yl)benzonitrile]	4 nM		≥ 1000 nM	6 nM
C[C@H](O)C(=O)N1CC[C@H](Oc2ccc(-c3ncnc(Nc4ccc(N5CCN(C6CCOCC6)CC5)cc4)n3)cc2C#N)[C@H](F)C1 [Example 309, 2-(((3R,4S)-3-fluoro-1-((S)-2-hydroxypropanoyl)piperidin-4-yl)oxy)-5-(4-((4-(4-(tetrahydro-2H-pyran-4-yl)piperazin-1-yl)phenyl)amino)-1,3,5-triazin-2-yl)benzonitrile]	2 nM		423 nM	1 nM
Cc1nc(C)c(Nc2ncnc(-c3ccc(O[C@H]4CCN(C(=O)[C@H](C)O)C[C@H]4F)c(C#N)c3)n2)s1 [Example 571, 5-(4-((2,4-dimethylthiazol-5-yl)amino)-1,3,5-triazin-2-yl)-2-(((3R,4S)-3-fluoro-1-((S)-2-hydroxypropanoyl)piperidin-4-yl)oxy)benzonitrile]	6 nM	11 nM	≥ 1000 nM	
N#Cc1cc(-c2ncnc(Nc3ccc(Cn4ccnc4)cc3)n2)ccc1OC1CCOCC1 [Example 106, 5-(4-((4-((1H-imidazol-1-yl)methyl)phenyl)amino)-1,3,5-triazin-2-yl)-2-((tetrahydro-2H-pyran-4-yl)oxy)benzonitrile]	5 nM		> 1000 nM	4 nM
N#Cc1cc(-c2ncnc(Nc3ccc(N4CCN(C5COC5)CC4)cc3)n2)ccc1O[C@H]1CCN(C(=O)c2nccnc2N)C[C@H]1F [Example 339, 2-(((3R,4S)-1-(3-aminopyrazine-2-carbonyl)-3-fluoropiperidin-4-yl)oxy)-5-(4-((4-(4-(oxetan-3-yl)piperazin-1-yl)phenyl)amino)-1,3,5-triazin-2-yl)benzonitrile]	14 nM		54 nM	58 nM
CN1C(=O)CC[C@H]1C(=O)N1CC[C@H](Oc2ccc(-c3ncnc(Nc4ccc(N5CCN(C6COC6)CC5)cc4)n3)cc2C#N)[C@H](F)C1 [Example 407, 2-(((3R,4S)-3-fluoro-1-((S)-1-methyl-5-oxopyrrolidine-2-carbonyl)piperidin-4-yl)oxy)-5-(4-((4-(4-(oxetan-3-yl)piperazin-1-yl)phenyl)amino)-1,3,5-triazin-2-yl)benzonitrile]	165 nM	165 nM	≥ 1000 nM	
N#Cc1cc(-c2ncnc(Nc3ccc(N4CCN(C5COC5)CC4)c(F)c3)n2)ccc1OC1CCS(=O)(=O)CC1 [Example 268, 2-((1,1-dioxidotetrahydro-2H-thiopyran-4-yl)oxy)-5-(4-((3-fluoro-4-(4-(oxetan-3-yl)piperazin-1-yl)phenyl)amino)-1,3,5-triazin-2-yl)benzonitrile]	12 nM		527 nM	69 nM
COc1cc(Nc2ncnc(-c3ccc(O[C@H]4CCN(C(=O)CC#N)C[C@H]4F)c(C#N)c3)n2)ccc1N1CCC(N2CCOCC2)CC1 [Example 327, 2-(((3R,4S)-1-(2-cyanoacetyl)-3-fluoropiperidin-4-yl)oxy)-5-(4-((3-methoxy-4-(4-morpholinopiperidin-1-yl)phenyl)amino)-1,3,5-triazin-2-yl)benzonitrile]	4 nM		62 nM	2 nM
C[C@H](O)C(=O)N1CC[C@H](Oc2ccc(-c3ncnc(Nc4ccc(N5CCN(C6COC6)CC5)c(C(F)(F)F)c4)n3)cc2C#N)[C@H](F)C1 [Example 370, 2-(((3R,4S)-3-fluoro-1-((S)-2-hydroxypropanoyl)piperidin-4-yl)oxy)-5-(4-((4-(4-(oxetan-3-yl)piperazin-1-yl)-3-(trifluoromethyl)phenyl)amino)-1,3,5-triazin-2-yl)benzonitrile]	5 nM		875 nM	8 nM
Cc1noc(C(=O)N2CC[C@H](Oc3ccc(-c4ncnc(Nc5ccc(N6CCN(C7COC7)CC6)cc5)n4)cc3C#N)[C@H](F)C2)n1 [Example 612, 2-(((3R,4S)-3-fluoro-1-(3-methyl-1,2,4-oxadiazole-5-carbonyl)piperidin-4-yl)oxy)-5-(4-((4-(4-(oxetan-3-yl)piperazin-1-yl)phenyl)amino)-1,3,5-triazin-2-yl)benzonitrile]	3 nM		607 nM	2 nM
Cc1n[nH]c(C(=O)N2CC[C@H](Oc3ccc(-c4ncnc(Nc5ccc(N6CCN(C7COC7)CC6)cc5)n4)cc3C#N)[C@H](F)C2)c1C [Example 526, 2-(((3R,4S)-1-(3,4-dimethyl-1H-pyrazole-5-carbonyl)-3-fluoropiperidin-4-yl)oxy)-5-(4-((4-(4-(oxetan-3-yl)piperazin-1-yl)phenyl)amino)-1,3,5-triazin-2-yl)benzonitrile]	9 nM	19 nM	447 nM	
N#Cc1cc(-c2ncnc(Nc3ccc(N4CCNCC4)cc3)n2)ccc1OC1CCOCC1 [Example 18, 5-(4-((4-(piperazin-1-yl)phenyl)amino)-1,3,5-triazin-2-yl)-2-((tetrahydro-2H-pyran-4-yl)oxy)benzonitrile, trifluoroacetic acid salt]	1 nM		271 nM	1 nM
C[C@H](O)C(=O)N1CC[C@H](Oc2ccc(-c3ncnc(Nc4cnc5c(c4)OCCN5)n3)cc2C#N)[C@H](F)C1 [Example 516, 5-(4-((3,4-dihydro-2H-pyrido[3,2-b][1,4]oxazin-7-yl)amino)-1,3,5-triazin-2-yl)-2-(((3R,4S)-3-fluoro-1-((S)-2-hydroxypropanoyl)piperidin-4-yl)oxy)benzonitrile]	6 nM	10 nM	≥ 1000 nM	

Further lines, results first:

IC50 (TBK1)	IC50 (IKKε; [1])	IC50 (hJAK2)	IC50 (IKKε)	Compound
12 nM	33 nM	601 nM		N#Cc1cc(-c2ncnc(Nc3ccc(N4CCN(C5COC5)CC4)cc3)n2)ccc1O[C@H]1CCN(C(=O)NCCO)C[C@H]1F [Example 429, (3R,4S)-4-(2-cyano-4-(4-((4-(4-(oxetan-3-yl)piperazin-1-yl)phenyl)amino)-1,3,5-triazin-2-yl)phenoxy)-3-fluoro-N-(2-hydroxyethyl)piperidine-1-carboxamide]
5 nM		192 nM	8 nM	N#Cc1cc(-c2ncnc(Nc3ccc(N4CCN(C5COC5)CC4)cc3)n2)ccc1O[C@H]1CCN(C(=O)c2[nH]ncc2Cl)C[C@H]1F [Example 322, 2-(((3R,4S)-1-(4-chloro-1H-pyrazole-5-carbonyl)-3-fluoropiperidin-4-yl)oxy)-5-(4-((4-(4-(oxetan-3-yl)piperazin-1-yl)phenyl)amino)-1,3,5-triazin-2-yl)benzonitrile]
2 nM		84 nM	1 nM	N#Cc1cc(-c2ncnc(Nc3ccc(N4CCN(C5COC5)CC4)cc3)n2)ccc1O[C@H]1CCN(C(=O)c2cnn[nH]2)C[C@H]1F [Example 143, 2-(((3R,4S)-3-fluoro-1-(1H-1,2,3-triazole-5-carbonyl)piperidin-4-yl)oxy)-5-(4-((4-(4-(oxetan-3-yl)piperazin-1-yl)phenyl)amino)-1,3,5-triazin-2-yl)benzonitrile]
47 nM		≥ 1000 nM	≥ 1000 nM	N#Cc1cc(-c2ncnc(Nc3ccc(N4CCN(C5COC5)CC4)cc3)n2)ccc1OC1CN(C(=O)CO)C1 [Example 274, 2-((1-(2-hydroxyacetyl)azetidin-3-yl)oxy)-5-(4-((4-(4-(oxetan-3-yl)piperazin-1-yl)phenyl)amino)-1,3,5-triazin-2-yl)benzonitrile]
2 nM		270 nM	14 nM	N#Cc1cc(-c2ncnc(Nc3ccc(N4CCN(C5COC5)CC4)cc3)n2)ccc1O[C@@H]1CCNCC1(F)F (single isomer, unassigned) [Example 150]
5 nM		224 nM	5 nM	C[C@H]1C[C@@H](Oc2ccc(-c3ncnc(Nc4ccc(N5CCN(C6COC6)CC5)cc4)n3)cc2C#N)CCN1C(=O)c1cnn[nH]1 [Example 188, 2-(((2S,4S)-2-methyl-1-(1H-1,2,3-triazole-5-carbonyl)piperidin-4-yl)oxy)-5-(4-((4-(4-(oxetan-3-yl)piperazin-1-yl)phenyl)amino)-1,3,5-triazin-2-yl)benzonitrile]
18 nM	49 nM	≥ 1000 nM		N#Cc1cc(-c2ncnc(Nc3ccc(N4CCN(C5COC5)CC4)cc3)n2)ccc1O[C@H]1CCN(C(=O)[C@@H]2C[C@H](O)CN2)C[C@H]1F [Example 588, 2-(((3R,4S)-3-fluoro-1-((2S,4S)-4-hydroxypyrrolidine-2-carbonyl)piperidin-4-yl)oxy)-5-(4-((4-(4-(oxetan-3-yl)piperazin-1-yl)phenyl)amino)-1,3,5-triazin-2-yl)benzonitrile]

From US10040781B2, “Tank-binding kinase inhibitor compounds” (Gilead Sciences, Inc., priority 2014, dated 2018)
